Source: patent US8178506B2, “Oligomeric compounds and compositions for use in modulation of small non-coding RNAs” (Regulus Therapeutics Inc., priority 2003, dated 2012)
In the oligonucleotide strings, read from the 5' end, every base follows the letter of its sugar. An asterisk marks phosphorothioate; unmarked linkages are phosphodiester. Other units and linkages are bracketed, terminal groups are in braces. A string of capitals states the bases alone. e = 2'-O-(2-methoxyethyl) (MOE); [5mC] = 5-methylcytosine

How the values were obtained:
[1] = system: PEPCK-c; assay: PEPCK-c mRNA expression in HepG2 cells; format: cell-based, human; conditions: for PEPCK-c (% UTC): HepG2, 100 nM oligomeric compound; for PEPCKc mRNA: HepG2 cells, four hours, UTC = 100
[2] = system: follistatin; assay: Follistatin mRNA expression in HepG2 cells; format: cell-based, human; conditions: for Follistatin (% UTC): HepG2, 100 nM oligomeric compound; for Follistatin mRNA: HepG2 cells, four hours, UTC = 100
Description: Approximately 28 hours after transfection, the cells are subjected to serum starvation for a period of 12 to 16 hours, using serum-free growth medium. Following serum starvation, cells are treated with 1 nM insulin (insulin-treated) or are left untreated (basal conditions) for approximately four hours. At the same time, untreated control cells in both plates are treated with 100 nM insulin to determine the maximal insulin response. Following insulin treatment (forty-eight hours after transfection), total RNA is harvested from all samples, and the amount of total RNA from each sample is determined using a Ribogreen assay (Invitrogen Corporation, Carlsbad, Calif.). Real-time PCR is performed on the total RNA samples using primer/probe sets for three insulin responsive genes: insulin-like growth factor binding protein-1 (IGFBP-1), cytosolic PEPCK (PEPCK-C), and follistatin. Gene expression levels obtained by real-time PCR are normalized for total RNA content in the samples.
Oligomeric compounds of the present invention were tested for their effects on insulin signaling in HepG2 cells. HepG2 cells were plated at 7500 cells/well in collagen coated 96-well plates. The following day, cells were transfected with oligomeric compounds targeting miRNAs using 100 nM oligomeric compound in LIPOFECTIN™ (Invitrogen Corporation, Carlsbad, Calif.) in two 96-well plates. The oligomeric compounds were tested in triplicate on each 96-well plate, except for positive and negative controls, which were measured up to six times per plate. At the end of transfection, the transfection medium was replaced by regular growth medium. Twenty-eight hours post-transfection, the cells were subjected to overnight (sixteen to eighteen hours) serum starvation using serum free growth medium. Forty-four hours post-transfection, the cells in the transfected wells were treated with either no insulin (“basal” Experiment 1, for identification of insulin-mimetic compounds) or with 1 nM insulin (“insulin treated” Experiment 2, for identification of insulin sensitizers) for four hours. At the same time, in both plates, cells in some of the un-transfected control wells are treated with 100 nM insulin to determine maximal insulin response. At the end of the insulin or no-insulin treatment (forty-eight hours post-transfection), total RNA is isolated from both the basal and insulin treated (1 nM) 96-well plates, and the amount of total RNA from each sample is determined using a Ribogreen assay (Molecular Probes, Eugene, Oreg.). Real-time PCR is performed on all the total RNA samples using primer/probe sets for three insulin responsive genes: PEPCK-c, IGFBP-1 and follistatin. Expression levels for each gene are normalized to total RNA, and values+standard deviation are expressed relative to the transfectant only untreated control (UTC) and negative control compounds.
Protocols for treatment of HepG2 cells and transfection of oligomeric compounds are as described in Example 18. Also as described in Example 18, forty-four hours post-transfection, the cells in the transfected wells were treated with either no insulin (“basal” Experiment 3 (below), for identification of insulin-mimetic compounds) or with 1 nM insulin (“insulin treated” Experiment 4 (below), for identification of insulin sensitizers) for four hours. At the same time, in both plates, cells in some of the un-transfected control wells are treated with 100 nM insulin to determine maximal insulin response. At the end of the insulin or no-insulin treatment (forty-eight hours post-transfection), total RNA is isolated from both the basal and insulin treated (1 nM) 96-well plates, and the amount of total RNA from each sample is determined using a Ribogreen assay (Molecular Probes, Eugene, Oreg.).

[3] = system: IL-12 mRNA; assay: IL-12 mRNA in LPS-activated primary murine macrophages; format: cell-based, mouse; conditions: for IL-12 mRNA expression, −IFN % UTC: 300 nM oligomeric compound and LPS, no IFN-gamma pretreatment, single experiment; for IL-12 mRNA expression, −IFN % UTC / IL-12 mRNA expression, +IFN % UTC: normalized to LPS-treated cells without oligomeric compound; for IL-12 mRNA expression, +IFN % UTC: 300 nM oligomeric compound, stimulation with IFN-gamma and LPS, average of 2 experiments; for IL-12 mRNA expression, % UTC: LPS, average of 3 treatments
[4] = Experiment 1, basal (no insulin)
[5] = Experiment 2, 1 nM insulin treated
[6] = Experiment 2, insulin treated: HepG2 cells transfected with oligomeric compound, 1 nM insulin for four hours, UTC + 1 nM insulin = 100

| Substance | IL-12 mRNA expression, −IFN % UTC [3] [% UTC] | IL-12 mRNA expression, +IFN % UTC [3] [% UTC] | also measured |
| --- | --- | --- | --- |
| 327878 (antisense e[5mC]*eT*eA*eG*eT*eG*eG*eT*e[5mC]*e[5mC]*eT*eA*eA*eA*e[5mC]*eA*eT*eT*eT*e[5mC]*eA*e[5mC]) [compound 327878] |  |  | PEPCK-c (% UTC) [1, 4]: 45 % UTC; PEPCK-c (% UTC) [1, 5]: 29 % UTC; Follistatin (% UTC) [2, 4]: 124 % UTC; Follistatin (% UTC) [2, 5]: 150 % UTC |
| 327880 (antisense eA*e[5mC]*eA*eA*eA*eT*eT*e[5mC]*eG*eG*eT*eT*e[5mC]*eT*eA*e[5mC]*eA*eG*eG*eG*eT*eA) [compound 327880] |  |  | PEPCK-c (% UTC) [1, 4]: 110 % UTC; PEPCK-c (% UTC) [1, 5]: 125 % UTC; Follistatin (% UTC) [2, 4]: 107 % UTC; Follistatin (% UTC) [2, 5]: 149 % UTC |
| 327885 (antisense eA*e[5mC]*eT*eA*e[5mC]*e[5mC]*eT*eG*e[5mC]*eA*e[5mC]*eT*eG*eT*eA*eA*eG*e[5mC]*eA*e[5mC]*eT*eT*eT*eG) [compound 327885] |  |  | PEPCKc mRNA [1, 4]: 73; Follistatin mRNA [2, 4]: 74 |
| 327886 (antisense e[5mC]*eG*e[5mC]*eG*eT*eA*e[5mC]*e[5mC]*eA*eA*eA*eA*eG*eT*eA*eA*eT*eA*eA*eT*eG) [compound 327886] |  |  | PEPCKc mRNA [1, 4]: 61; Follistatin mRNA [2, 4]: 82 |
| 327892 (antisense eA*e[5mC]*eT*eT*eT*e[5mC]*eG*eG*eT*eT*eA*eT*e[5mC]*eT*eA*eG*e[5mC]*eT*eT*eT*eA) [compound 327892] |  |  | PEPCK-c (% UTC) [1, 4]: 75 % UTC; PEPCK-c (% UTC) [1, 5]: 104 % UTC; Follistatin (% UTC) [2, 4]: 91 % UTC; Follistatin (% UTC) [2, 5]: 96 % UTC |
| 327895 (antisense eA*e[5mC]*eA*eA*eA*e[5mC]*eA*e[5mC]*e[5mC]*eA*eT*eT*eG*eT*e[5mC]*eA*e[5mC]*eA*e[5mC]*eT*e[5mC]*e[5mC]*eA) [compound 327895] |  |  | PEPCKc mRNA [1, 4]: 71; Follistatin mRNA [2, 4]: 83 |
| 327897 (antisense eA*e[5mC]*eA*eG*eG*e[5mC]*e[5mC]*eG*eG*eG*eA*e[5mC]*eA*eA*eG*eT*eG*e[5mC]*eA*eA*eT*eA) [compound 327897] |  |  | PEPCKc mRNA expression [1, 6]: 78; PEPCKc mRNA [1, 4]: 72; Follistatin mRNA expression [2, 6]: 123; Follistatin mRNA [2, 4]: 129 |
| 327900 (antisense e[5mC]*eT*eG*e[5mC]*e[5mC]*eT*eG*eT*e[5mC]*eT*eG*eT*eG*e[5mC]*e[5mC]*eT*eG*e[5mC]*eT*eG*eT) [compound 327900] |  |  | PEPCKc mRNA [1, 4]: 88; Follistatin mRNA [2, 4]: 111 |
| 327912 (antisense eA*eA*e[5mC]*eT*eA*eT*eA*e[5mC]*eA*eA*eT*e[5mC]*eT*eA*e[5mC]*eT*eA*e[5mC]*e[5mC]*eT*e[5mC]*eA) [compound 327912] | 206 | 39 |  |
| 327917 (antisense eT*e[5mC]*eA*eA*e[5mC]*eA*eT*e[5mC]*eA*eG*eT*e[5mC]*eT*eG*eA*eT*eA*eA*eG*e[5mC]*eT*eA) [compound 327917] | 225 | 35 |  |
| 327921 (antisense e[5mC]*eT*eT*e[5mC]*e[5mC]*eA*eG*eT*e[5mC]*eG*eG*eG*eG*eA*eT*eG*eT*eT*eT*eA*e[5mC]*eA) [compound 327921] | 325 | 24 | IL-12 mRNA expression, % UTC ([3]; 75 nM, +IFN): 14 % UTC; IL-12 mRNA expression, % UTC ([3]; 75 nM, −IFN): 109 % UTC; IL-12 mRNA expression, % UTC ([3]; 150 nM, +IFN): 7 % UTC; IL-12 mRNA expression, % UTC ([3]; 150 nM, −IFN): 88 % UTC; IL-12 mRNA expression, % UTC ([3]; 300 nM, +IFN): 5 % UTC; IL-12 mRNA expression, % UTC ([3]; 300 nM, −IFN): 67 % UTC; IL-12 mRNA expression, % UTC ([3]; 600 nM, +IFN): 5 % UTC; IL-12 mRNA expression, % UTC ([3]; 600 nM, −IFN): 53 % UTC |
| 327927 (antisense eT*eG*eT*eA*eA*eA*e[5mC]*e[5mC]*eA*eT*eG*eA*eT*eG*eT*eG*e[5mC]*eT*eG*e[5mC]*eT*eA) [compound 327927] | 164 | 33 |  |
| 327928 (antisense eA*eA*e[5mC]*e[5mC]*eG*eA*eT*eT*eT*e[5mC]*eA*eG*eA*eT*eG*eG*eT*eG*e[5mC]*eT*eA*eG) [compound 327928] | 201 | 61 |  |
| 327931 (antisense eA*eA*e[5mC]*e[5mC]*eA*eT*eA*e[5mC]*eA*eA*e[5mC]*e[5mC]*eT*eA*e[5mC]*eT*eA*e[5mC]*e[5mC]*eT*e[5mC]*eA) [compound 327931] | 105 | 48 |  |
| 327956 (antisense e[5mC]*eA*e[5mC]*eA*eG*eT*eT*eG*e[5mC]*e[5mC]*eA*eG*e[5mC]*eT*eG*eA*eG*eA*eT*eT*eA) [compound 327956] | 212 | 59 |  |
| 327967 (antisense eA*e[5mC]*eT*eG*eT*eA*e[5mC]*eA*eA*eA*e[5mC]*eT*eA*e[5mC]*eT*eA*e[5mC]*e[5mC]*eT*e[5mC]*eA) [compound 327967] | 203 | 43 |  |
| 328105 (antisense e[5mC]*e[5mC]*eT*e[5mC]*eA*eA*eT*eT*eA*eT*eT*eG*eG*eA*eA*eA*eT*e[5mC]*eA*e[5mC]*eA) [compound 328105] | 108 | 57 |  |
| 328110 (antisense eG*eA*eT*eA*eA*eA*eG*e[5mC]*e[5mC]*eA*eA*eT*eA*eA*eA*e[5mC]*eT*eG*eT*e[5mC]*eA) [compound 328110] | 221 | 8 |  |
| 328117 (antisense eT*e[5mC]*e[5mC]*eA*e[5mC]*eA*eA*eA*eG*e[5mC]*eT*eG*eA*eA*e[5mC]*eA*eT*eG*eT*e[5mC]*eT) [compound 328117] | 162 | 72 |  |
| 328123 (antisense eT*eT*eA*e[5mC]*eA*eG*eG*eT*eG*e[5mC]*eT*eG*e[5mC]*eA*eA*e[5mC]*eT*eG*eG*eA*eA) [compound 328123] | 176 | 14 |  |
| 328129 (antisense eA*eG*e[5mC]*e[5mC]*eT*e[5mC]*e[5mC]*eT*eT*e[5mC]*eT*eT*e[5mC]*eT*e[5mC]*eG*eT*eA*e[5mC]*eT*eA) [compound 328129] | 87 | 10 |  |
| 328133 (eT*eG*eA*eA*eG*eG*eT*eT*e[5mC]*eG*eG*eA*eG*eA*eT*eA*eG*eG*e[5mC]*eT*eA; anti-miR) [compound 328133] | 165 | 62 |  |
| 328137 (eG*eT*eA*eA*eG*e[5mC]*eG*e[5mC]*eA*eG*e[5mC]*eT*e[5mC]*e[5mC]*eA*e[5mC]*eA*eG*eG*e[5mC]*eT; anti-miR) [compound 328137] | 213 | 12 |  |
| 328138 (eG*eA*eG*e[5mC]*eT*eG*e[5mC]*eT*e[5mC]*eA*eG*e[5mC]*eT*eG*eG*e[5mC]*e[5mC]*eA*eT*e[5mC]*eA; anti-miR) [compound 328138] | 277 | 31 |  |
| 342673 (antisense eA*eG*eA*e[5mC]*eT*eA*eG*e[5mC]*eG*eG*eT*eA*eT*e[5mC]*eT*eT*eT*eA*eT*e[5mC]*e[5mC]*e[5mC]) [compound 342673] | 91 |  |  |
